Literature values in patent US7955624B2, “Compositions and methods for increasing adipose metabolism, lipolysis or lipolytic metabolism via thermogenesis” (HHC Formulations Ltd., priority 2006, dated 2011).

Experiments:
[1] = active treatment versus placebo
[2] = mice
[3] = not given; remark: listed apart in the source
[4] = mice; remark: listed apart in the source

Compound: O=C(O)c1cccnc1 [Niacin, nicotinic acid]
- high-density lipoprotein cholesterol (HDL-C) [1]: increase
- low-density lipoprotein cholesterol (LDL-C) [1]: decrease
- total cholesterol [1]: decrease
- triglyceride levels [1]: decrease

Compound: Cn1c(=O)c2c(ncn2C)n(C)c1=O [caffeine]
- basal metabolic rate (humans): increase the basal metabolic rate
- weight loss (obese women, caffeine supplementation): Significant weight loss

Compound: CN(C)CCO [deanol, dimethylaminoethanol]
- plasma and tissue levels of choline [2]: increase

Compound: O=P(O)(O)O[C@H]1[C@H](OP(=O)(O)O)[C@@H](OP(=O)(O)O)[C@H](OP(=O)(O)O)[C@@H](OP(=O)(O)O)[C@H]1OP(=O)(O)O [inositol hexaphosphate, Inositol hexaphosphate]
- reducing triglycerides, cholesterol and lipogenic enzymes ([3]; 0.02% to 10% phytic acid in a high sucrose diet): dose-dependent response
- food intake and growth ([3]; highest dose, 10% phytic acid): reduction

Compound: evodiamine
- secretion of adrenergic signaling molecules (bovine adrenal medulla): increase the secretion
- body fat [4]: decrease body fat
- energy expenditure [4]: increase energy expenditure
- lipid mobilization [4]: increase
